Experimental data reported in ChEMBL document CHEMBL6103585, “Construction and activity evaluation of novel CHS inhibitors against fungal infections” (Eur J Med Chem, 2025).
≈ marks a conversion by molar mass, not a printed value. Calls of active or inactive are those of the source. No cut-off for these calls is given here.

Key:
Candida albicans [1] = experiment: In vivo antifungal activity against Candida albicans 901 infected in mouse model assessed as expansion of alveolar spaces in lung at 5 microg/g, iv pre-infected with fungi by intravenous injection followed by compound administration and measured on day 8 by H and E staining based analysis; type: functional, organism-based; details: dose 5.0 µg/g, time 8.0 day
Candida tropicalis = experiment: Antifungal activity against Candida tropicalis ATCC 1369 assessed as fungal growth inhibition incubated for 72 hrs by broth microdilution method; type: functional
Candida albicans [2] = experiment: Antifungal activity against fluconazole-resistant Candida albicans CaR assessed as reduction in fungal growth incubated for 72 hrs by broth microdilution method; type: functional
Candida albicans [3] = experiment: Antifungal activity against fluconazole-resistant Candida albicans 632 assessed as reduction in fungal growth incubated for 72 hrs by broth microdilution method; type: functional
Candida albicans [4] = experiment: Antifungal activity against fluconazole-resistant Candida albicans 904 assessed as reduction in fungal growth incubated for 72 hrs by broth microdilution method; type: functional
Candida albicans [5] = experiment: Fungicidal activity against Candida albicans ATCC SC5314 assessed as live cells (reference value: 92%); type: functional
Candida albicans [6] = experiment: Antifungal activity against Candida albicans ATCC SC5314 assessed as fungal growth inhibition incubated for 72 hrs by broth microdilution method; type: functional
[7] = Binding affinity to chitin synthase (unknown origin) assessed as dissociation constant by SPR analysis
Cryptococcus neoformans = experiment: Antifungal activity against Cryptococcus neoformans ZKCC 2209 assessed as fungal growth inhibition incubated for 72 hrs by broth microdilution method; type: functional
Candida albicans [8] = experiment: Fungicidal activity against Candida albicans ATCC SC5314 assessed as dead cells (reference value: 8%); type: functional
Aspergillus fumigatus = experiment: Antifungal activity against Aspergillus fumigatus KM 8001 assessed as fungal growth inhibition incubated for 72 hrs by broth microdilution method; type: functional
Candida albicans [9] = experiment: Induction of apoptosis in Candida albicans ATCC SC5314 assessed as early apoptotic cells by V-FITC/PI staining based flow cytometric analysis (reference value: 3.51%); type: functional
Candida albicans [10] = experiment: Induction of apoptosis in Candida albicans ATCC SC5314 assessed as viable cells by V-FITC/PI staining based flow cytometric analysis (reference value: 93.3%); type: functional
Candida albicans [11] = experiment: Antifungal activity against fluconazole-resistant Candida albicans 17# assessed as reduction in fungal growth incubated for 72 hrs by broth microdilution method; type: functional
Candida albicans [12] = experiment: Induction of apoptosis in Candida albicans ATCC SC5314 assessed as late apoptotic cells by V-FITC/PI staining based flow cytometric analysis (reference value: 0.40%); type: functional
Candida albicans [13] = experiment: Induction of apoptosis in Candida albicans ATCC SC5314 assessed as necrotic cells by V-FITC/PI staining based flow cytometric analysis (reference value: 2.74%); type: functional
HeLa = experiment: Cytotoxicity against human HeLa cells incubated for 24 hrs by CCK8 assay; type: functional, cell-based
A549 = experiment: Cytotoxicity against human A549 cells incubated for 24 hrs by CCK8 assay; type: functional, cell-based; details: A549, 24 h
Nakaseomyces glabratus = experiment: Antifungal activity against Candida glabrata assessed as fungal growth inhibition incubated for 72 hrs by broth microdilution method; type: functional
Candida albicans [14] = experiment: Antifungal activity against fluconazole-resistant Candida albicans 901 assessed as reduction in fungal growth incubated for 72 hrs by broth microdilution method; type: functional
[15] = Inhibition of chitin synthase extracted from Candida tropicalis ATCC 1369 using UDP-GlcNAc as substrate incubated for 1 hrs
Candida albicans [16] = experiment: Induction of ROS generation in Candida albicans ATCC SC5314 assessed as increase in fluorescence intensity incubated for 12 hrs by fluorescence microscopic analysis; type: functional, organism-based
Candida albicans [17] = experiment: In vivo antifungal activity against Candida albicans 901 infected in mouse model assessed as decrease in IDO protein expression level at 5 microg/g, iv pre-infected with fungi by intravenous injection followed by compound administration and measured on day 8 by Western blotting analysis; type: functional, organism-based; details: dose 5.0 µg/g, time 8.0 day
Candida albicans [18] = experiment: In vivo antifungal activity against Candida albicans 901 infected in mouse model assessed as body weight gain at 5 microg/g, iv pre-infected with fungi by intravenous injection followed by compound administration and measured on day 8; type: functional, organism-based; details: dose 5.0 µg/g, time 8.0 day
Candida albicans [19] = experiment: In vivo antifungal activity against Candida albicans 901 infected in mouse model assessed as decrease in PD-L1 protein expression level at 5 microg/g, iv pre-infected with fungi by intravenous injection followed by compound administration and measured on day 8 by Western blotting analysis; type: functional, organism-based; details: dose 5.0 µg/g, time 8.0 day
Candida albicans [20] = experiment: In vivo antifungal activity against Candida albicans 901 infected in mouse model assessed as reduction in genetic material content in lung at 5 microg/g, iv pre-infected with fungi by intravenous injection followed by compound administration and measured on day 8 by H and E staining based analysis; type: functional, organism-based; details: dose 5.0 µg/g, time 8.0 day
Candida albicans [21] = experiment: In vivo antifungal activity against Candida albicans 901 infected in mouse model assessed as decrease in IL-2 protein expression level at 5 microg/g, iv pre-infected with fungi by intravenous injection followed by compound administration and measured on day 8 by Western blotting analysis; type: functional, organism-based; details: dose 5.0 µg/g, time 8.0 day
Candida albicans [22] = experiment: In vivo antifungal activity against Candida albicans 901 infected in mouse model assessed as decrease in IFN-gamma protein expression level at 5 microg/g, iv pre-infected with fungi by intravenous injection followed by compound administration and measured on day 8 by Western blotting analysis; type: functional, organism-based; details: dose 5.0 µg/g, time 8.0 day

Structure (SMILES) | MIC50 (Candida tropicalis) [µg/mL] | MIC50 (Candida albicans [2]) [µg/mL] | MIC50 (Candida albicans [3]) [µg/mL] | MIC50 (Candida albicans [4]) [µg/mL] | Activity (Candida albicans [5]) [%] | MIC50 (Candida albicans [6]) [µg/mL] | Kd [7] [µM] | MIC50 (Cryptococcus neoformans) [µg/mL] | Activity (Candida albicans [8]) [%] | MIC50 (Aspergillus fumigatus) [µg/mL] | Activity (Candida albicans [9]) [%] | Activity (Candida albicans [10]) [%] | MIC50 (Candida albicans [11]) [µg/mL] | Activity (Candida albicans [12]) [%] | Activity (Candida albicans [13]) [%] | IC50 (HeLa) [µM] | IC50 (A549) [µM] | MIC50 (Nakaseomyces glabratus) [µg/mL] | MIC50 (Candida albicans [14]) [µg/mL] | IC50 [15] [µM] | also measured
C[C@@H](c1ncncc1F)[C@](O)(Cn1cncn1)c1ccc(F)cc1F |  |  |  |  |  |  |  |  |  |  |  |  |  |  |  |  |  |  |  |  | Activity (Candida albicans [1]): inactive
O=C(NCC(=O)N1CCN(c2ccccc2)CC1)c1nc2ccc(Cl)cc2c(=O)[nH]1 | 1 (≈ 2.35 µM) | 4 (≈ 9.39 µM) | 8 (≈ 18.8 µM) | 4 (≈ 9.39 µM) | 22 | 0.5 (≈ 1.17 µM) | 0.0608 | 2 (≈ 4.7 µM) | 78 | 4 (≈ 9.39 µM) | 13.2 | 62.9 | 2 (≈ 4.7 µM) | 7.3 | 16.6 | > 50 | > 50 | 1 (≈ 2.35 µM) | 8 (≈ 18.8 µM) |  | 
OC(Cn1cncn1)(Cn1cncn1)c1ccc(F)cc1F [FLUCONAZOLE] | 0.5 (≈ 1.63 µM) | ≥ 16 | ≥ 16 | ≥ 16 |  | 1 (≈ 3.27 µM) |  | 2 (≈ 6.53 µM) |  | 4 (≈ 13.1 µM) |  |  | ≥ 16 |  |  |  |  | 1 (≈ 3.27 µM) | ≥ 16 |  | 
O=C(CNC(=O)c1nc2ccc(Cl)cc2c(=O)[nH]1)Nc1cccnc1 | 8 (≈ 22.4 µM) |  |  |  |  | 8 (≈ 22.4 µM) |  | 8 (≈ 22.4 µM) |  | ≥ 16 |  |  |  |  |  |  |  | 4 (≈ 11.2 µM) |  |  | 
O=C(CNC(=O)c1nc2ccc(Cl)cc2c(=O)[nH]1)NCc1ccccc1 | 2 (≈ 5.39 µM) |  |  |  |  | 4 (≈ 10.8 µM) |  | ≥ 16 |  | 8 (≈ 21.6 µM) |  |  |  |  |  |  |  | 8 (≈ 21.6 µM) |  | 30.3 | 
CC(=O)N1CCN(C(=O)CNC(=O)c2nc3ccc(Cl)cc3c(=O)[nH]2)CC1 | 1 (≈ 2.55 µM) |  |  |  |  | 1 (≈ 2.55 µM) |  | ≥ 16 |  | 8 (≈ 20.4 µM) |  |  |  |  |  |  |  | 2 (≈ 5.1 µM) |  |  | 
NC(=O)OC[C@H](O)[C@@H](O)[C@H](N)C(=O)N[C@H](C(=O)O)[C@H]1O[C@@H](n2cc(CO)c(=O)[nH]c2=O)[C@H](O)[C@@H]1O [POLYOXIN B] | 8 (≈ 15.8 µM) | 8 (≈ 15.8 µM) | 4 (≈ 7.88 µM) | 8 (≈ 15.8 µM) | 19 | 4 (≈ 7.88 µM) | 0.00562 | 4 (≈ 7.88 µM) | 81 | ≥ 16 | 4.93 | 57.5 | 2 (≈ 3.94 µM) | 4.5 | 33 | > 50 | > 50 | 2 (≈ 3.94 µM) | 4 (≈ 7.88 µM) | 25.5 | Activity (Candida albicans [16]): Active; Activity (Candida albicans [1]): Active; Activity (Candida albicans [17]): Active; Activity (Candida albicans [18]): Active; Activity (Candida albicans [19]): Active; Activity (Candida albicans [20]): Active; Activity (Candida albicans [21]): Active; Activity (Candida albicans [22]): Active
O=C(NCC(=O)N1CCN(C(=O)c2ccccc2)CC1)c1nc2ccc(Cl)cc2c(=O)[nH]1 | 0.5 (≈ 1.1 µM) | 2 (≈ 4.41 µM) | 4 (≈ 8.81 µM) | 2 (≈ 4.41 µM) | 6 | 0.5 (≈ 1.1 µM) | 0.00194 | 4 (≈ 8.81 µM) | 94 | 2 (≈ 4.41 µM) | 11.1 | 53.2 | 4 (≈ 8.81 µM) | 12.1 | 23.6 | > 50 | > 50 | 1 (≈ 2.2 µM) | 8 (≈ 17.6 µM) | 19.7 | Activity (Candida albicans [16]): Active
